Data published in patent publication US10647680B2, “Urea compound, preparation method therefor and medical use thereof” (Ancureall Pharmaceutical (Shanghai) Co., Ltd., priority 2016, dated 2020).

How the values were obtained:
[1] = biological target: T1, hERG potassium ion channel (Homo sapiens, UniProt Q12809); test: hERG test (whole cell model); format: cell-based; conditions: for Ratio (%): n=3
T1 construct: host or cells: HEK-293
Protocol: The whole cell model hERG test was performed with compound 77 of the present invention as a representative example, 30 uM Quinidine (Sigma) was used as a positive control.
Procedure: hERG potassium ion channel HEK-293 cells (Krius Biology) were over-expressed, and cultured at a 37° C., 5% CO2 incubator. The culture medium was DMEM supplemented with 15% fetal bovine serum and 1% penicillin-streptomycin. The stably transfected cells were inoculated to slides, with a cell density of less than 50%, and cultured overnight. The experimental cells were transferred to an approximately 1 mL bath tank embedded in an inverted microscope platform (Diaphot, Nikon), and the extracellular fluid was perfused at a perfusion rate of 2.7 mL/min. The experiment could be started after stabilization for 5 minutes and precipitation of cells. Membrane current was recorded by HEKAEPC-10 patch clamp amplifier and […] acquisition system (HEKA Instruments Inc., D-67466 Lambrecht/Pfalz Germany). All experiments were completed at room temperature (22-24° C.). During the experiment, a P-97 microelectrode control apparatus (Sutter Instrument Company, One Digital Drive, Novato, Calif. 94949) was used to […] the electrodes (BF150-110-10). The inner diameter of the electrode was 1-1.5 mm, and the inlet resistance after filling with the liquid was 2-4 MQ. Electrophysiological stimulation of the hERG potassium channel: firstly, the membrane voltage was clamped at −80 mV, and cells were given continuous stimulation of 2 s, +20 mV voltage, to activate hERG potassium ion channel and repolarization to −50 mV for 5 s, to generate outward tail current. The stimulation frequency was once every 15 seconds. The current value was the peak value of tail current. By measuring the maximum current value of the treatment group and the control group, the ratio of the maximum current value of the treatment group to the maximum current value of the control group (Mean±SE) was calculated, to evaluate the effect of the test compounds on the hERG potassium ion channel under the test concentration. Statistics and analysis of experimental data were performed by Origin 8.5 (OriginLab Corporation, Northampton, Mass.).

[2] = Stability in rat hepatocytes; format: in vitro ADME
Protocol: The stability experiment on rat hepatocytes was performed using compound 77 of the present invention as a representative example.
Procedure: The rat hepatocyte William's Medium E mixed reaction solution (2*10^6 cells/mL, 25 BD Gentest) was placed in a carbon dioxide incubator, and a certain volume of test substance or reference substance was added to the reaction system to initiate the reaction. In the final reaction system, the concentrations of the test substance or positive control testosterone were both 1 uM. Samples were taken at 0, 5, 15, 30, 45, 60, and 120 min after the reaction to a new centrifuge tube (3 portions in parallel at each time point), and 3-fold volume of ice methanol solution containing internal standard was added immediately to terminate the reactions, then after centrifugation for 5 min at 15,000 rpm to precipitate the protein, 100 μL of the supernatant was fetched to an autosampler vial for LC-MS/MS analysis (Waters Corp. ACQUITY UPLC, USA Applied Biosystems Inc. mass spectrometer API 400). The ratio of mean peak area of compound 77 to the mean peak area of internal standard at each time point was calculated, and the percentage of this ratio to that at time point 0 was calculated, and then change in this percentage was used to indicate the metabolic stability of the compound 77. […]

T1 sequence (Q12809 whole entry): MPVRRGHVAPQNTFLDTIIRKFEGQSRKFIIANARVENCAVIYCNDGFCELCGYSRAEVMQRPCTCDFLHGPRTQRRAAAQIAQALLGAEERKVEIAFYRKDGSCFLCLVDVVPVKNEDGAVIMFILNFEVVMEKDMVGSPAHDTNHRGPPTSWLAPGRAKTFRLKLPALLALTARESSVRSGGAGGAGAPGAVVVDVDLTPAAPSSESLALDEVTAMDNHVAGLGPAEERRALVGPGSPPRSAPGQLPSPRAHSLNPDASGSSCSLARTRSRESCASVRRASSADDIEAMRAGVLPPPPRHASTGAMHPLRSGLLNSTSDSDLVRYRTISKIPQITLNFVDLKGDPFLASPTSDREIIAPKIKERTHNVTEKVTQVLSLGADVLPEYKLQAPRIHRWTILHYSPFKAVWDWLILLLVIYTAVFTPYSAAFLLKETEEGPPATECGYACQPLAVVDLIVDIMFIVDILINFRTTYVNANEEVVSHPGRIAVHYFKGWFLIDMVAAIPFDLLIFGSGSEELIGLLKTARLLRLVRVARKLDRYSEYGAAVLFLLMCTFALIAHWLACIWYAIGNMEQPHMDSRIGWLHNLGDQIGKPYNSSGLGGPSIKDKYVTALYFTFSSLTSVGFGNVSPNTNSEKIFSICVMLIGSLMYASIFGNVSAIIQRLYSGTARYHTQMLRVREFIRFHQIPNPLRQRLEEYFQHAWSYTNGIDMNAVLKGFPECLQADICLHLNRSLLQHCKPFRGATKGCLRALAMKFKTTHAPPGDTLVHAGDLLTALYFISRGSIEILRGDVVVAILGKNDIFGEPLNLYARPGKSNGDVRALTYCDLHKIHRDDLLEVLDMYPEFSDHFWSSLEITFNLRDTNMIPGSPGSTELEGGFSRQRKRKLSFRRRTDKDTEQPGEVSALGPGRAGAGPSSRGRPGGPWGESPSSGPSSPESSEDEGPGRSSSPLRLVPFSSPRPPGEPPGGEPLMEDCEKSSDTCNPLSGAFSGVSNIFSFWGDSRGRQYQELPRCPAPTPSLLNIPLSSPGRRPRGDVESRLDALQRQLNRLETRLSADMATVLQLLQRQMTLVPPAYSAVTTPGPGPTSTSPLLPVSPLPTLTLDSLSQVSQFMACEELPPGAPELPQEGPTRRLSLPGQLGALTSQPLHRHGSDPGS

Which “Ratio (%)” value ([1]; Concentration 0.3 uM) does the source give for `COCCOc1ccc2c(c1)ncn2-c1ccc(NC(=O)Nc2cc(C(C)(C)C)n[nH]2)cc1` [Compound 77, 1-(5-tert-butyl-2H-pyrazol-3-yl)-3-{4-[5-(2-methoxyl-ethoxyl)-benzimidazol-1-yl]-phenyl}-urea] here?
Its value is 94.96%.

And the “Ratio (%)” value ([1]; Concentration 1 uM)?
Its value is 86.71%.

And the “Ratio (%)” value ([1]; Concentration 3 uM)?
The value was 75.85%.

And the “Ratio (%)” value ([1]; Concentration 10 uM)?
The value was 53.71%.

And the “Ratio (%)” value ([1]; Concentration 30 uM)?
Its value is 37.47%.

And the “blocking effect on the hERG potassium ion channel” value ([1]; within the range of test concentrations)?
The value was “a certain blocking effect”.

And the half-life at 1 uM [2]?
Its half-life at 1 uM is over 2 h.
